Measured values reported in US10563216B2, “Compositions and methods of delivering molecules to plants” (Bloomsburg University of Pennsylvania, priority 2016, dated 2020).

Test system: AvsYS1 avenic acid/Fe+3 transporter
Assay: Yeast growth assay in liquid medium; only iron available is Fe+3 complexed with the phytosiderophore or analog; DEY1453:pJKD1 (pYES2/AvsYS1) vs DEY1453:pYES2
Assay type: cell-based, Avena sativa
Details: for growth of yeast transformants containing pJKD1 (AvsYS1 transporter): S. cerevisiae DEY1453:pJKD1, ferric iron supplied only as complex with the substance, YNB pH 7.5, BPDS
Source text: AvsYS1 (Genbank FJ477297.1) was isolated using 5′RACE from the roots of iron starved oats (Avena sativa). Primers were designed by comparing one functionally confirmed phytosiderophore/Fe′ transporter (HvYS1) and other iron transport proteins. After obtaining a full-length clone, we subcloned the gene (AvsYS1) into a yeast galactose inducible expression vector (pYES2). The resultant plasmid was designated pJKD1. We obtained a yeast strain that lacks the ability to take up ferric iron, and transformed it with pYES2 and pJKD1. The transformants were grown under identical conditions in which the only iron available was in the Fe^+3/avenic acid complex.
We engineered the AvsYS1 gene into a galactose inducible expression systems vector (pYES2). Our first major result was the functional confirmation of the AvsYS1 gene. We transformed pYES2 and pJKD1 (pYES2/AvsYS1) into a strain of S. cerevisiae (DEY1453) that lacks the ability to take up Fe^+3. In the process, we developed a new assay based on growth in liquid medium. The advantage of this assay over more traditional assays used in yeast-based PS/Fe^+3 assays is that it is quantifiable. Other assays (e.g., Murata, 2006) grow yeast on a solid plate, and qualitative growth of colonies is used. With our assay, we can generate numerical data based on the density as measured by the absorbance at 600 nm. […] Further detail is provided below.
Protocols included: 53Y and 53K in DOB+FeSO4, 53Y and 53K in YNB supplemented with Avenic acid; 53Y and 53K supplemented with BPA-1-068B; 53Y and 53K in YNB w/no supplements; uninoculated YNB; uninoculated DOB.
Protocols included: 53Y and 53K, supplemented with Avenic acid, 53Y and 53K supplemented with BPA-1-068B, 53Y and 53K in YNB w/no supplements.
Strains grown in YNB/Gal, pH 7.5, Amp50, Avenic acid: Fe^+3, 5:1
Protocols included: 53Y(pYES2) and 53K(pJKD1=pYES2+AvsYS1), supplemented with Avenic acid (red arrows); 53Y and 53K supplemented with BPA-1-068B (blue arrows); 53Y and 53K in YNB w/no supplements.

O=C(CC(NCCC(NCC[C@H](O)C(=O)O)C(=O)O)C(=O)O)OCc1ccccc1O (some centres unmarked) [BPA-1-068B]
growth rate of DEY1453:pJKD1 (Fe+3 complexed with the analog, robustness compared to DEY1453:pYES2 controls): slower, but undeniably robust
growth of yeast transformants containing pJKD1 (AvsYS1 transporter): able to grow

O=C(O)C(CO)NCCC(NCC[C@H](O)C(=O)O)C(=O)O (some centres unmarked) [MGS-2-128BF]
growth of yeast transformants containing pJKD1 (AvsYS1 transporter): supported growth as well as avenic acid

O=C(O)C(CCO)NCCC(NCC[C@H](O)C(=O)O)C(=O)O (some centres unmarked) [avenic acid]
growth of yeast transformants containing pJKD1 (AvsYS1 transporter): able to grow vigorously
growth of yeast transformants with pYES2 (no transporter) (S. cerevisiae DEY1453:pYES2, only iron available is the Fe+3 complex with the substance): could not
